Source: publication PMC5218480 (PLoS ONE, 2017)

Test system: MV-4-11 cells
Assay: Gene expression microarray analysis (Affymetrix PrimeView) and GSEA
Type: cell-based, human
Design: RFU PODN (11730768_x_at) / Fold change /veh PODN (11730768_x_at) / RFU LINC00158 (11744669_a_at) / Fold change /veh LINC00158 (11744669_a_at) / RFU DUSP10 (11751237_a_at) / Fold change /veh DUSP10 (11751237_a_at) / RFU ID3 (11757404_x_at) / Fold change /veh ID3 (11757404_x_at) / RFU PLEKHG5 (11737974_s_at) / Fold change /veh PLEKHG5 (11737974_s_at) / RFU LRRC4B (11730491_at) / Fold change /veh LRRC4B (11730491_at) / RFU GIMAP4 (11747438_a_at) / Fold change /veh GIMAP4 (11747438_a_at) / RFU KRT8 (11758183_x_at) / Fold change /veh KRT8 (11758183_x_at) / RFU CNN1 (11734310_a_at) / Fold change /veh CNN1 (11734310_a_at) / RFU VPS37D (11726825_at) / Fold change /veh VPS37D (11726825_at) / RFU C10orf10 (11716522_x_at) / Fold change /veh C10orf10 (11716522_x_at) / RFU KIR2DL2 /// KIR2DL4 /// KIR2DL5A /// KIR2DL5B /// KIR2DS1 /// KIR2DS2 /// KIR2DS3 /// KIR2DS4 /// KIR3DL3 /// KIR3DL3 /// KIR3DS1 (11738374_at) / Fold change /veh KIR2DL2 /// KIR2DL4 /// KIR2DL5A /// KIR2DL5B /// KIR2DS1 /// KIR2DS2 /// KIR2DS3 /// KIR2DS4 /// KIR3DL3 /// KIR3DL3 /// KIR3DS1 (11738374_at) / RFU C1QL1 (11718748_at) / Fold change /veh C1QL1 (11718748_at) / RFU TMPRSS4 (11747572_a_at) / Fold change /veh TMPRSS4 (11747572_a_at) / RFU HAMP (11756126_x_at) / Fold change /veh HAMP (11756126_x_at) / RFU RNFT2 (11725882_a_at) / Fold change /veh RNFT2 (11725882_a_at) / RFU NR4A2 (11747474_a_at) / Fold change /veh NR4A2 (11747474_a_at) / RFU ABCC12 (11746883_a_at) / Fold change /veh ABCC12 (11746883_a_at) / RFU TMEM136 (11760407_x_at) / Fold change /veh TMEM136 (11760407_x_at) / RFU CLDN22 /// WWC2 (11732394_at) / Fold change /veh CLDN22 /// WWC2 (11732394_at) / RFU HLA-DPB1 (11760878_x_at) / Fold change /veh HLA-DPB1 (11760878_x_at) / RFU SPINT1 (11716480_a_at) / Fold change /veh SPINT1 (11716480_a_at) / RFU GAP43 (11754022_s_at) / Fold change /veh GAP43 (11754022_s_at) / RFU A4GNT (11735810_at) / Fold change /veh A4GNT (11735810_at) / RFU PRB3 (11715151_x_at) / Fold change /veh PRB3 (11715151_x_at) / RFU TUBB4B (11761932_at) / Fold change /veh TUBB4B (11761932_at) / RFU CAPN14 (11732068_a_at) / Fold change /veh CAPN14 (11732068_a_at) / RFU TMCC2 (11721928_a_at) / Fold change /veh TMCC2 (11721928_a_at) / RFU IRGQ (11745062_a_at) / Fold change /veh IRGQ (11745062_a_at) / RFU FAM174B (11720279_a_at) / Fold change /veh FAM174B (11720279_a_at) / RFU TMPRSS4 (11748680_a_at) / Fold change /veh TMPRSS4 (11748680_a_at) / RFU FAM212B (11763350_a_at) / Fold change /veh FAM212B (11763350_a_at) / RFU PLEKHG5 (11743358_a_at) / Fold change /veh PLEKHG5 (11743358_a_at) / RFU ZSCAN30 (11745921_a_at) / Fold change /veh ZSCAN30 (11745921_a_at) / RFU CMKLR1 (11741424_a_at) / Fold change /veh CMKLR1 (11741424_a_at) / RFU LOC101060620 /// MAPK8IP1 (11723275_at) / Fold change /veh LOC101060620 /// MAPK8IP1 (11723275_at) / RFU SPTSSB (11747773_x_at) / Fold change /veh SPTSSB (11747773_x_at) / RFU PRSS12 (11739890_at) / Fold change /veh PRSS12 (11739890_at) / RFU BIN1 (11741810_x_at) / Fold change /veh BIN1 (11741810_x_at) / RFU WNT11 (11732464_a_at) / Fold change /veh WNT11 (11732464_a_at) / RFU C10orf10 (11716521_a_at) / Fold change /veh C10orf10 (11716521_a_at) / RFU C5orf56 (11738089_at) / Fold change /veh C5orf56 (11738089_at) / RFU CYB561 (11721691_x_at) / Fold change /veh CYB561 (11721691_x_at) / RFU ANKRD19P (11752326_a_at) / Fold change /veh ANKRD19P (11752326_a_at) / RFU OR2T12 /// OR2T33 /// OR2T8 (11738714_s_at) / Fold change /veh OR2T12 /// OR2T33 /// OR2T8 (11738714_s_at) / RFU VCAN (11748164_a_at) / Fold change /veh VCAN (11748164_a_at) / RFU JSRP1 (11732532_at) / Fold change /veh JSRP1 (11732532_at) / RFU KRTAP10-11 (11738290_x_at) / Fold change /veh KRTAP10-11 (11738290_x_at) / RFU MYO3A (11730013_a_at) / Fold change /veh MYO3A (11730013_a_at) / RFU EBF3 (11725865_a_at) / Fold change /veh EBF3 (11725865_a_at) / RFU CAMK2N1 (11719241_x_at) / Fold change /veh CAMK2N1 (11719241_x_at) / RFU C5orf56 (11738088_a_at) / Fold change /veh C5orf56 (11738088_a_at) / RFU OLFML3 (11715873_a_at) / Fold change /veh OLFML3 (11715873_a_at) / RFU LOC100653217 /// NTM (11731650_a_at) / Fold change /veh LOC100653217 /// NTM (11731650_a_at) / RFU MAPK11 (11762145_a_at) / Fold change /veh MAPK11 (11762145_a_at) / RFU FIZ1 (11724087_x_at) / Fold change /veh FIZ1 (11724087_x_at) / RFU OASL (11726364_x_at) / Fold change /veh OASL (11726364_x_at) / RFU SOX15 (11748057_x_at) / Fold change /veh SOX15 (11748057_x_at) / RFU CD79A (11719716_a_at) / Fold change /veh CD79A (11719716_a_at) / RFU HIST1H1D (11736915_at) / Fold change /veh HIST1H1D (11736915_at) / RFU CASKIN2 (11723855_a_at) / Fold change /veh CASKIN2 (11723855_a_at) / RFU LOC730098 (11760151_x_at) / Fold change /veh LOC730098 (11760151_x_at) / RFU OR4N2 (11742367_at) / Fold change /veh OR4N2 (11742367_at) / RFU PRRT2 (11749266_a_at) / Fold change /veh PRRT2 (11749266_a_at) / RFU SNX32 (11753110_a_at) / Fold change /veh SNX32 (11753110_a_at) / RFU CDHR5 (11726645_a_at) / Fold change /veh CDHR5 (11726645_a_at) / RFU RCAN1 (11760418_a_at) / Fold change /veh RCAN1 (11760418_a_at) / RFU FAM167A (11723789_a_at) / Fold change /veh FAM167A (11723789_a_at) / RFU FAM26E (11764081_at) / Fold change /veh FAM26E (11764081_at) / RFU ISYNA1 (11749810_s_at) / Fold change /veh ISYNA1 (11749810_s_at) / RFU ACY1 (11761880_at) / Fold change /veh ACY1 (11761880_at) / RFU 11764098_at / Fold change /veh 11764098_at / RFU SAMD14 (11745864_x_at) / Fold change /veh SAMD14 (11745864_x_at) / RFU NPB (11741838_a_at) / Fold change /veh NPB (11741838_a_at) / RFU TMPRSS6 (11731388_a_at) / Fold change /veh TMPRSS6 (11731388_a_at) / RFU KRTAP10-2 (11738614_at) / Fold change /veh KRTAP10-2 (11738614_at) / RFU ARHGAP8 /// PRR5-ARHGAP8 (11727945_x_at) / Fold change /veh ARHGAP8 /// PRR5-ARHGAP8 (11727945_x_at) / RFU KRTAP5-7 /// NADSYN1 (11734609_at) / Fold change /veh KRTAP5-7 /// NADSYN1 (11734609_at) / RFU RASL12 (11751679_a_at) / Fold change /veh RASL12 (11751679_a_at) / RFU CDKN2B (11736163_a_at) / Fold change /veh CDKN2B (11736163_a_at) / RFU PRF1 (11729649_at) / Fold change /veh PRF1 (11729649_at) / RFU, ZNF638 /// ZNF638-IT1 / Fold change vs veh, ZNF638 /// ZNF638-IT1 / RFU, PANK3 / Fold change vs veh, PANK3 / RFU, SH3YL1 / Fold change vs veh, SH3YL1 / RFU, ZEB2 / Fold change vs veh, ZEB2 / RFU, NRIP1 / Fold change vs veh, NRIP1 / RFU, PTTG1IP / Fold change vs veh, PTTG1IP / RFU, CAPN2 / Fold change vs veh, CAPN2 / RFU, MED14 / Fold change vs veh, MED14 / RFU, SNORA58 / Fold change vs veh, SNORA58 / RFU, C1orf63 / Fold change vs veh, C1orf63 / RFU, LRRFIP1 / Fold change vs veh, LRRFIP1 / RFU, NDUFAF7 / Fold change vs veh, NDUFAF7 / RFU, SLC12A2 / Fold change vs veh, SLC12A2 / RFU, IBTK / Fold change vs veh, IBTK / RFU, ESF1 / Fold change vs veh, ESF1 / Fold change vs veh, TMEM50B / RFU, TAOK1 / Fold change vs veh, TAOK1 / RFU, ACBD3 / Fold change vs veh, ACBD3 / RFU, TMA16 / Fold change vs veh, TMA16 / RFU, RWDD3 / Fold change vs veh, RWDD3 / RFU, BCAT1 / Fold change vs veh, BCAT1 / RFU, EDEM3 / Fold change vs veh, EDEM3 / RFU, TMEM33 / Fold change vs veh, TMEM33 / RFU, WDR75 / Fold change vs veh, WDR75 / RFU, AHCTF1 / Fold change vs veh, AHCTF1 / RFU, TFRC / Fold change vs veh, TFRC / RFU, ZDHHC17 / Fold change vs veh, ZDHHC17 / RFU, NOM1 / Fold change vs veh, NOM1 / RFU, ARL8B / Fold change vs veh, ARL8B / RFU, ZBTB11 / Fold change vs veh, ZBTB11 / RFU, TAMM41 / Fold change vs veh, TAMM41 / RFU, KIAA1704 /// LOC100996395 / Fold change vs veh, KIAA1704 /// LOC100996395 / RFU, ING1 / Fold change vs veh, ING1 / RFU, TRMT61B / Fold change vs veh, TRMT61B / RFU, FUBP3 / Fold change vs veh, FUBP3 / RFU, TP53 / Fold change vs veh, TP53 / RFU, TNKS2 / Fold change vs veh, TNKS2 / RFU, ZFP14 / Fold change vs veh, ZFP14 / RFU, ACTR2 / Fold change vs veh, ACTR2 / RFU, PPP3R1 / Fold change vs veh, PPP3R1 / RFU, PIK3R1 / Fold change vs veh, PIK3R1 / RFU, HNRNPA1 / Fold change vs veh, HNRNPA1 / RFU, RNF170 / Fold change vs veh, RNF170 / RFU, ZNF28 / Fold change vs veh, ZNF28 / RFU, RNGTT / Fold change vs veh, RNGTT / RFU, OGT / Fold change vs veh, OGT / RFU, BRD1 / Fold change vs veh, BRD1 / RFU, MARS / Fold change vs veh, MARS / RFU, ZNF655 / Fold change vs veh, ZNF655 / RFU, FAHD1 / Fold change vs veh, FAHD1 / RFU, BDP1 / Fold change vs veh, BDP1 / RFU, LRRCC1 / Fold change vs veh, LRRCC1 / RFU, ARID1A / Fold change vs veh, ARID1A / RFU, ZNF146 / Fold change vs veh, ZNF146 / RFU, ZNF330 / Fold change vs veh, ZNF330 / RFU, GPN3 / Fold change vs veh, GPN3 / RFU, C9orf123 / Fold change vs veh, C9orf123 / RFU, N4BP2L2 / Fold change vs veh, N4BP2L2 / RFU, ARFIP1 / Fold change vs veh, ARFIP1 / RFU, FAM179B / Fold change vs veh, FAM179B / RFU, BCL10 / Fold change vs veh, BCL10 / RFU, UHRF1BP1L / Fold change vs veh, UHRF1BP1L / RFU, BET1 / Fold change vs veh, BET1 / RFU, CNOT2 / Fold change vs veh, CNOT2 / RFU, ZNF268 / Fold change vs veh, ZNF268 / Fold change vs veh, ZNF507 / RFU, DGCR2 / Fold change vs veh, DGCR2 / RFU, WDSUB1 / Fold change vs veh, WDSUB1 / Fold change vs veh, HSP90B1 /// MIR3652 / RFU, ADSS / Fold change vs veh, ADSS / RFU, GK / Fold change vs veh, GK / RFU, ZNF148 / Fold change vs veh, ZNF148 / RFU, TAF9 / Fold change vs veh, TAF9 / RFU, SLC1A5 / Fold change vs veh, SLC1A5 / RFU, SLMO2 / Fold change vs veh, SLMO2 / RFU, ABCC4 / Fold change vs veh, ABCC4 / RFU, LOC101060439 /// RAP1B / Fold change vs veh, LOC101060439 /// RAP1B / RFU, RFX7 / Fold change vs veh, RFX7 / RFU, GTPBP10 / Fold change vs veh, GTPBP10 / RFU, CNEP1R1 / Fold change vs veh, CNEP1R1 / RFU, BIVM-ERCC5 /// ERCC5 / Fold change vs veh, BIVM-ERCC5 /// ERCC5 / RFU, ILF3 / Fold change vs veh, ILF3 / RFU 11762660_at / Fold change /veh 11762660_at / RFU VCAN (11757783_s_at) / Fold change /veh VCAN (11757783_s_at) / RFU DDX43 (11728927_at) / Fold change /veh DDX43 (11728927_at) / RFU KRT8 (11758188_x_at) / Fold change /veh KRT8 (11758188_x_at) / RFU NKD1 (11759106_at) / Fold change /veh NKD1 (11759106_at) / RFU SRD5A1 (11742802_a_at) / Fold change /veh SRD5A1 (11742802_a_at) / RFU TPSAB1 /// TPSB2 (11721975_s_at) / Fold change /veh TPSAB1 /// TPSB2 (11721975_s_at) / RFU GSTM3 (11746129_a_at) / Fold change /veh GSTM3 (11746129_a_at) / RFU IL23R (11737362_x_at) / Fold change /veh IL23R (11737362_x_at) / RFU TMEM51 (11727254_a_at) / Fold change /veh TMEM51 (11727254_a_at) / RFU PIWIL2 (11732686_x_at) / Fold change /veh PIWIL2 (11732686_x_at) / RFU ORM1 (11744905_x_at) / Fold change /veh ORM1 (11744905_x_at) / RFU CCDC152 (11743942_at) / Fold change /veh CCDC152 (11743942_at) / RFU ECM1 (11717891_a_at) / Fold change /veh ECM1 (11717891_a_at) / RFU IL23R (11748794_a_at) / Fold change /veh IL23R (11748794_a_at) / RFU TNFAIP8L3 (11732012_x_at) / Fold change /veh TNFAIP8L3 (11732012_x_at) / RFU MBOAT4 (11741988_at) / Fold change /veh MBOAT4 (11741988_at) / RFU 11764193_at / Fold change /veh 11764193_at / RFU TMEM53 (11763286_at) / Fold change /veh TMEM53 (11763286_at) / RFU MAGEB2 (11727129_at) / Fold change /veh MAGEB2 (11727129_at) / RFU TMEM200A (11744735_a_at) / Fold change /veh TMEM200A (11744735_a_at) / RFU CCDC152 (11751479_a_at) / Fold change /veh CCDC152 (11751479_a_at) / RFU FAM211A (11726209_a_at) / Fold change /veh FAM211A (11726209_a_at) / RFU RGS16 (11746705_a_at) / Fold change /veh RGS16 (11746705_a_at) / RFU VCAN (11755009_s_at) / Fold change /veh VCAN (11755009_s_at) / RFU RHOB (11743442_s_at) / Fold change /veh RHOB (11743442_s_at) / RFU RGS16 (11720943_a_at) / Fold change /veh RGS16 (11720943_a_at) / RFU RGS16 (11720944_at) / Fold change /veh RGS16 (11720944_at) / RFU, VPS4B / Fold change vs veh, VPS4B / RFU, CREB1 / Fold change vs veh, CREB1 / RFU, DNAJC13 / Fold change vs veh, DNAJC13 / RFU, GNAQ / Fold change vs veh, GNAQ / RFU, CDK5R1 / Fold change vs veh, CDK5R1 / RFU, ZRANB3 / Fold change vs veh, ZRANB3 / RFU, CUL4A / Fold change vs veh, CUL4A / RFU, CCNY / Fold change vs veh, CCNY / RFU, UFL1 / Fold change vs veh, UFL1 / RFU, COG3 / Fold change vs veh, COG3 / RFU, DIAPH2 / Fold change vs veh, DIAPH2 / RFU, SKA2 / Fold change vs veh, SKA2 / RFU, AFF3 / Fold change vs veh, AFF3 / RFU, LMF1 / Fold change vs veh, LMF1 / RFU, IPO11 / Fold change vs veh, IPO11 / RFU, DFFB / Fold change vs veh, DFFB / RFU, FOXP1 / Fold change vs veh, FOXP1 / RFU, CARD8 / Fold change vs veh, CARD8 / RFU, STRN3 / Fold change vs veh, STRN3 / RFU, ADK / Fold change vs veh, ADK / RFU, RASSF2 / Fold change vs veh, RASSF2 / RFU, WIPF1 / Fold change vs veh, WIPF1 / RFU, LARP1B / Fold change vs veh, LARP1B / RFU, RASA1 / Fold change vs veh, RASA1 / RFU, RB1 / Fold change vs veh, RB1 / RFU, PPFIA1 / Fold change vs veh, PPFIA1 / RFU, MAT2A / Fold change vs veh, MAT2A / RFU, CCT5 / Fold change vs veh, CCT5 / RFU, WDR92 / Fold change vs veh, WDR92 / RFU, CUX1 / Fold change vs veh, CUX1 / RFU, TTC7A / Fold change vs veh, TTC7A / RFU, TMEM135 / Fold change vs veh, TMEM135 / RFU, DEPTOR / Fold change vs veh, DEPTOR / RFU, CPM / Fold change vs veh, CPM / RFU, DNAJB6 / Fold change vs veh, DNAJB6 / RFU, CACNA2D3 / Fold change vs veh, CACNA2D3 / RFU, DTX4 / Fold change vs veh, DTX4 / RFU, TFCP2 / Fold change vs veh, TFCP2 / RFU, GMCL1 /// GMCL1P1 / Fold change vs veh, GMCL1 /// GMCL1P1 / RFU, AEBP2 / Fold change vs veh, AEBP2 / RFU, SNHG1 /// SNORD22 /// SNORD25 /// SNORD26 /// SNORD27 /// SNORD28 /// SNORD29 /// SNORD31 / Fold change vs veh, SNHG1 /// SNORD22 /// SNORD25 /// SNORD26 /// SNORD27 /// SNORD28 /// SNORD29 /// SNORD31 / Fold change (Aza/veh), C12orf56 (ProbeSet 11735607_a_at) / Fold change (ACY-1035/veh), C12orf56 (ProbeSet 11735607_a_at) / Fold change (Aza/veh), FGFR1OP (ProbeSet 11751329_s_at) / Fold change (ACY-1035/veh), FGFR1OP (ProbeSet 11751329_s_at) / Fold change (Aza/veh), VPS36 (ProbeSet 11739960_a_at) / Fold change (ACY-1035/veh), VPS36 (ProbeSet 11739960_a_at) / RFU SYPL1 (11715823_x_at) / Fold change /veh SYPL1 (11715823_x_at) / RFU IGFBP7 (11715501_s_at) / Fold change /veh IGFBP7 (11715501_s_at) / RFU REEP3 (11722064_at) / Fold change /veh REEP3 (11722064_at) / RFU IGLL1 (11728026_x_at) / Fold change /veh IGLL1 (11728026_x_at): dose or concentration left out as unconfirmed
Details: MV-4-11 cells, 48 hours

Nc1ncn([C@@H]2O[C@H](CO)[C@@H](O)[C@H]2O)c(=O)n1 [azacitidine]
RFU KRTAP5-7 /// NADSYN1 (11734609_at): 11.87 RFU
